Experiments:
physchem = settings: octanol/water
[1] = target: T1, Dihydrofolate reductase type 1 (Escherichia coli) (UniProt P00382); assay: Inhibition of dihydrofolate reductase (DHFR) from Escherichia coli.
T1 sequence (whole entry): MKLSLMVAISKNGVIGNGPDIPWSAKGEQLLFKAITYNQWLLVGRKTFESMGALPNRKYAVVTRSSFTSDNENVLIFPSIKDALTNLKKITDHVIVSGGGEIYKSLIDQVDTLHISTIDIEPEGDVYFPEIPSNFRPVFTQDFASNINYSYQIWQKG

[2] = octanol/water

Structure (SMILES)	logP (physchem)	other results
CN [METHYLAMINE]	-0.57	
CC1(C)N=C(N)N=C(N)N1c1ccc(Cl)c(Cl)c1		Log 1/C [1]: 6.8
OCC(F)(F)F [TRIFLUOROETHANOL]	0.41	
CCCN1C(N)=NC(N)=NC1(C)C		Log 1/C [1]: 5.33
NC(=O)C(F)(F)F [TRIFLUOROACETAMIDE]	0.12	
CC1(C)N=C(N)N=C(N)N1c1ccccc1		Log 1/C [1]: 5.52
FC(F)Cl	1.08	
FCF	0.2	
O=c1[nH]cc(I)c(=O)[nH]1	0.04	
Nc1cccc(Cl)c1 [3-CHLOROANILINE]	1.88	
CCCl [ETHYL CHLORIDE]	1.43	
C=C(F)F	1.24	
ClC(Cl)=C(Cl)Cl [TETRACHLOROETHYLENE]	2.6	
CI [IODOMETHANE]	1.51	
C#C [ETHYNE]	0.37	
O=C(O)CBr [BROMOACETIC ACID]	0.41	
CC1(C)N=C(N)N=C(N)N1c1ccc(C#N)cc1		Log 1/C [1]: 4.04
OCC(Cl)(Cl)Cl [TRICHLORETHANOL]	1.42	
CS(=O)(=O)c1ccccc1 [METHYLPHENYLSULFONE]	0.48	
CC#CC	1.46	
ClC=C(Cl)Cl [TRICHLOROETHYLENE]	2.29	
CC1(C)N=C(N)N=C(N)N1c1cccc(Cl)c1		Log 1/C [1]: 6.22
C[S+]([O-])c1ccccc1 (configuration not stated) [METHYLPHENYLSULFOXIDE]	0.55	
CC1(C)N=C(N)N=C(N)N1c1cccc(C(F)(F)F)c1		Log 1/C [1]: 5.64
CC1(C)N=C(N)N=C(N)N1CCc1ccccc1		Log 1/C [1]: 5.42

Structure (SMILES)	logP (physchem)	other results
CCNC(N)=S	-0.66	
ClCCl [METHYLENE CHLORIDE]	1.25	
Clc1ccccc1 [CHLOROBENZENE]	2.46	
O=CO [FORMIC ACID]	-0.54	
Oc1cccc(I)c1	3	
CC(=O)Nc1ccc(Cc2cnc(N)nc2N)cc1[N+](=O)[O-]		Log 1/C [1]: 6.97
NC(=O)CBr	-0.52	
CBr [BROMOMETHANE]	1.19	
CS(=O)(=O)Oc1cccc(Cc2cnc(N)nc2N)c1		Log 1/C [1]: 6.92
O=Nc1ccccc1 [NITROSOBENZENE]	2.01	
CC#N [ACETONITRILE]	-0.34	
CNC(C)=O	-1.05	
CF [FLUOROMETHANE]	0.51	
COC [METHOXYMETHANE]	0.1	
CO [METHYL ALCOHOL]	-0.71	
CCOCC [ETHER]	0.77	
Nc1ncc(Cc2ccc(OC(F)(F)F)cc2)c(N)n1		Log 1/C [1]: 6.57
C=CC [PROPENE]	1.77	
C=C=C	1.45	
C[N+](C)(C)CCI	-3	
C#CC [PROPYNE]	0.94	
CCOCCO [2-ETHOXYETHANOL]	-0.54	
NC(N)=S [THIOUREA]		logP [2]: -1.06
OCC(Cl)Cl	0.37	
CCOC(=O)c1ccc(N2C(N)=NC(N)=NC2(C)C)cc1		Log 1/C [1]: 4.42

Structure (SMILES)	logP (physchem)	other results
NC(N)=O [UREA]	-1.09	
NC(=O)C(Cl)(Cl)Cl	1.04	
CC1(C)N=C(N)N=C(N)N1c1ccc(Cl)cc1		Log 1/C [1]: 6.4
O=[N+]([O-])CCO	-0.42	
C=CC#N [ACRYLONITRILE]	-0.92	
CC(F)F	0.75	
C=C	1.13	
C=CCC	2.4	
C=COCC	1.04	
N=C=N [CARBIMIDE]	-0.5	
CC1(C)N=C(N)N=C(N)N1c1ccc(-c2ccccc2)cc1		Log 1/C [1]: 5.24
FC(F)(F)C(F)(F)F	2	
CC1(C)N=C(N)N=C(N)N1c1ccc(C(=O)O)cc1		Log 1/C [1]: 2.72
CC1(C)N=C(N)N=C(N)N1Cc1ccccc1		Log 1/C [1]: 4.47
O=Nc1ccc(O)c(C(=O)O)c1	2.34	
COc1cccc(N2C(N)=NC(N)=NC2(C)C)c1		Log 1/C [1]: 5.41
CCCCCF	2.33	
CC(C)N [ISOPROPYLAMINE]	0.26	
Sc1ccccc1 [BENZENETHIOL]	2.52	
CC(O)CN (configuration not stated)	-0.96	
C1=CCOC1	0.46	
CCSCC [DIETHYL SULFIDE]	1.95	
O=NN(CCF)C(=O)NCCCl	0.95	
CC1(C)N=C(N)N=C(N)N1c1cccc(Cc2ccccc2)c1		Log 1/C [1]: 6.55
Brc1ccncc1	1.54	

Structure (SMILES)	logP (physchem)	other results
CSc1ccccc1	2.74	
COc1ccc(Cc2cnc(N)nc2N)cc1C(F)(F)F		Log 1/C [1]: 7.69
O=[N+]([O-])c1cccc(I)c1	2.94	
CCOC(C)=O [ETHYL ACETATE]	0.7	
Brc1ccccn1	1.38	
CN(C)N=O [N-NITROSODIMETHYLAMINE]	-0.57	
CCN [ETHYLAMINE]	-0.13	
CC(C)N(N=O)C(C)C	1.63	
CC[N+](=O)[O-] [NITROETHANE]	0.18	
CC(Cl)(Cl)Cl [TRICHLOROETHANE]	2.49	
Nc1ncc(Cc2ccc([N+](=O)[O-])cc2)c(N)n1		Log 1/C [1]: 6.2
CN1C(N)=NC(N)=NC1(C)C		Log 1/C [1]: 4.32
COC(C)=O [ACETIC ACID METHYL ESTER]	0.18	
FC(F)(Cl)C(F)(F)Cl [DICHLOROTETRAFLUOROETHANE]	2.82	
COc1ccccc1 [ANISOLE]	2.08	
O=C(O)CS [THIOGLYCOLIC ACID]	0.09	
FC(Cl)Cl	1.55	
CC1(C)N=C(N)N=C(N)N1CCCc1ccccc1		Log 1/C [1]: 7.2
CC1(C)N=C(N)N=C(N)N1c1cccc([N+](=O)[O-])c1		Log 1/C [1]: 5.51
Cc1cccc([N+](C)(C)C)c1	-2.31	
CC1(C)N=C(N)N=C(N)N1c1cccc(C(=O)O)c1		Log 1/C [1]: 3.89
CN(N=O)C(N)=O [N-METHYL-N-NITROSUREA]	-0.16	
